Source: paper PMC5760531, “Action Potential Recording and Pro-arrhythmia Risk Analysis in Human Ventricular Trabeculae” (Frontiers in Physiology, 2018)

How the values were obtained:
[1] = human free (unbound) effective therapeutic plasma concentration used to calculate multiples; cited from earlier work
[2] = test system: human ventricular trabeculae; assay: Action potential recording and pro-arrhythmic score analysis in human ventricular trabeculae (hVT); conditions: 1Hz; for Beat Escape (raw data) / EADs (raw data) / Refractoriness Escape (raw data): n=4 trabeculae;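 as to all read-outs here: sharp microelectrode action potential recordings at 37°C in Tyrode-perfused trabeculae, 4 cumulative concentrations each applied 31 min, values averaged over last 30 APs, vehicle 0.1% DMSO as control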

## Cc1cccc(C)c1OCC(C)N (stereo not drawn) [MEXILETINE, Mexiletine]
[1]
  Free ETPC: 4.1 µM
[2]; 0.7-FOLD free ETPC (4.1µM)
  AMAX (average raw data): 111
  AMAX percentage change compared to vehicle control: 0%
  APD30 (average raw data): 174
  APD30 percentage change compared to vehicle control: -5%
  APD50 (average raw data): 231
  APD50 percentage change compared to vehicle control: -3%
  APD90 (average raw data): 321
  APD90 percentage change compared to vehicle control: -1%
  Alternans (average raw data): 0.72
  Alternans percentage change compared to vehicle control: 7%
  Beat Escape percentage change compared to vehicle control: 25%
  EADs percentage change compared to vehicle control: 0%
  ERP (average raw data): 0.43
  ERP percentage change compared to vehicle control: 1%
  Max Dispersion (average raw data): 3.75
  Max Dispersion percentage change compared to vehicle control: 0%
  RMP (average raw data): -91
  RMP percentage change compared to vehicle control: 1%
  Refractoriness Escape percentage change compared to vehicle control: 0%
  STV (average raw data): 0.51
  STV percentage change compared to vehicle control: 1%
  Triangulation (average raw data): 147
  Triangulation percentage change compared to vehicle control: 4%
  Beat Escape (raw data): 1
  EADs (raw data): 0
  Refractoriness Escape (raw data): 0
[2]; 7-FOLD free ETPC (4.1µM)
  AMAX (average raw data): 109
  AMAX percentage change compared to vehicle control: -3%
  APD30 (average raw data): 158
  APD30 percentage change compared to vehicle control: -13%
  APD50 (average raw data): 206
  APD50 percentage change compared to vehicle control: -14%
  APD90 (average raw data): 297
  APD90 percentage change compared to vehicle control: -8%
  Alternans (average raw data): 0.68
  Alternans percentage change compared to vehicle control: 0%
  Beat Escape percentage change compared to vehicle control: 25%
  EADs percentage change compared to vehicle control: 0%
  ERP (average raw data): 0.41
  ERP percentage change compared to vehicle control: -5%
  Max Dispersion (average raw data): 2.82
  Max Dispersion percentage change compared to vehicle control: -25%
  RMP (average raw data): -91
  RMP percentage change compared to vehicle control: 1%
  Refractoriness Escape percentage change compared to vehicle control: 0%
  STV (average raw data): 0.49
  STV percentage change compared to vehicle control: -3%
  Triangulation (average raw data): 140
  Triangulation percentage change compared to vehicle control: -1%
  Beat Escape (raw data): 1
  EADs (raw data): 0
  Refractoriness Escape (raw data): 0
[2]; 24-FOLD free ETPC (4.1µM)
  AMAX (average raw data): 102
  AMAX percentage change compared to vehicle control: -9%
  APD30 (average raw data): 137
  APD30 percentage change compared to vehicle control: -25%
  APD50 (average raw data): 180
  APD50 percentage change compared to vehicle control: -25%
  APD90 (average raw data): 282
  APD90 percentage change compared to vehicle control: -13%
  Alternans (average raw data): 17.51
  Alternans percentage change compared to vehicle control: 2481%
  Beat Escape percentage change compared to vehicle control: 75%
  EADs percentage change compared to vehicle control: 0%
  ERP (average raw data): 0.39
  ERP percentage change compared to vehicle control: -8%
  Max Dispersion (average raw data): 50.33
  Max Dispersion percentage change compared to vehicle control: 1242%
  RMP (average raw data): -89
  RMP percentage change compared to vehicle control: -1%
  Refractoriness Escape percentage change compared to vehicle control: 0%
  STV (average raw data): 12.96
  STV percentage change compared to vehicle control: 2873%
  Triangulation (average raw data): 145
  Triangulation percentage change compared to vehicle control: 3%
  Beat Escape (raw data): 3
  EADs (raw data): 0
  Refractoriness Escape (raw data): 0
[2]; 73-FOLD free ETPC (4.1µM)
  AMAX (average raw data): 86
  AMAX percentage change compared to vehicle control: -22%
  APD30 (average raw data): 120
  APD30 percentage change compared to vehicle control: -27%
  APD50 (average raw data): 165
  APD50 percentage change compared to vehicle control: -27%
  APD90 (average raw data): 277
  APD90 percentage change compared to vehicle control: -9%
  Alternans (average raw data): 2.53
  Alternans percentage change compared to vehicle control: 272%
  EADs percentage change compared to vehicle control: 0%
  ERP (average raw data): 0.42
  ERP percentage change compared to vehicle control: -1%
  Max Dispersion (average raw data): 6.30
  Max Dispersion percentage change compared to vehicle control: 68%
  RMP (average raw data): -76
  RMP percentage change compared to vehicle control: -13%
  Refractoriness Escape percentage change compared to vehicle control: 0%
  STV (average raw data): 1.74
  STV percentage change compared to vehicle control: 182%
  Triangulation (average raw data): 157
  Triangulation percentage change compared to vehicle control: 12%
  Beat Escape (raw data): 1
